These results are taken from BindingDB's records for doi:10.1046/j.1471-4159.1996.67010058.x (Cns Research, 1996).

One may read the pKi as the negative decadic logarithm of the Ki, by convention in mol/L. Low readings indicate a large Ki, high ones a small Ki.

Assay [1] has as its target Metabotropic glutamate receptor 2 (Homo sapiens, UniProt Q14416).
Assay [2] deals with Metabotropic glutamate receptor 3 (Homo sapiens, UniProt Q14832).
Assay [3] addresses Metabotropic glutamate receptor 1 (Homo sapiens, UniProt Q13255).

pKi: −log10 of the molar value. “And” between values parts separate entries of the source, which are not always exact repeats. Equal values may be shown once.

Chain of Metabotropic glutamate receptor 2 (Q14416 whole entry): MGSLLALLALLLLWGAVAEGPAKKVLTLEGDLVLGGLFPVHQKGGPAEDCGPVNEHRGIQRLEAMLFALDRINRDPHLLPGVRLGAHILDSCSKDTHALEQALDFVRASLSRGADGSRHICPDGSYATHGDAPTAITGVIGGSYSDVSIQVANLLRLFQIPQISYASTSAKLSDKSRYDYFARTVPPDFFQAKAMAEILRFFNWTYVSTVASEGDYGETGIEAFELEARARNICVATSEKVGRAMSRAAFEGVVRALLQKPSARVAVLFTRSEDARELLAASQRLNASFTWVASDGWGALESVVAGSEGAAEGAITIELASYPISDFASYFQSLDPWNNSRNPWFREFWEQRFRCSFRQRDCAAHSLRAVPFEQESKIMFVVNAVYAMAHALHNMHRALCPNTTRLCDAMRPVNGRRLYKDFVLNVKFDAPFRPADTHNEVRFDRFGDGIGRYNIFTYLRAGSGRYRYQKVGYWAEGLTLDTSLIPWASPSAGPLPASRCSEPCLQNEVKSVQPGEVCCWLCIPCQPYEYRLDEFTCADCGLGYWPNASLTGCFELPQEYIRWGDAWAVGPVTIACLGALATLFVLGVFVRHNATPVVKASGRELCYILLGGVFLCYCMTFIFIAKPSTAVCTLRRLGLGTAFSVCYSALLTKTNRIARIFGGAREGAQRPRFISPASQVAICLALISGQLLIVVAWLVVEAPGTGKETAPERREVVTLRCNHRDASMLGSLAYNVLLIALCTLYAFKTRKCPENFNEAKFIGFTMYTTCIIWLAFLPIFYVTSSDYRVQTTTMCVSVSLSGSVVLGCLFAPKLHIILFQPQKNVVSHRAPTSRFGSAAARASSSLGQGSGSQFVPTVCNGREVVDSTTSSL
Chain of Metabotropic glutamate receptor 3 (Q14832 whole entry): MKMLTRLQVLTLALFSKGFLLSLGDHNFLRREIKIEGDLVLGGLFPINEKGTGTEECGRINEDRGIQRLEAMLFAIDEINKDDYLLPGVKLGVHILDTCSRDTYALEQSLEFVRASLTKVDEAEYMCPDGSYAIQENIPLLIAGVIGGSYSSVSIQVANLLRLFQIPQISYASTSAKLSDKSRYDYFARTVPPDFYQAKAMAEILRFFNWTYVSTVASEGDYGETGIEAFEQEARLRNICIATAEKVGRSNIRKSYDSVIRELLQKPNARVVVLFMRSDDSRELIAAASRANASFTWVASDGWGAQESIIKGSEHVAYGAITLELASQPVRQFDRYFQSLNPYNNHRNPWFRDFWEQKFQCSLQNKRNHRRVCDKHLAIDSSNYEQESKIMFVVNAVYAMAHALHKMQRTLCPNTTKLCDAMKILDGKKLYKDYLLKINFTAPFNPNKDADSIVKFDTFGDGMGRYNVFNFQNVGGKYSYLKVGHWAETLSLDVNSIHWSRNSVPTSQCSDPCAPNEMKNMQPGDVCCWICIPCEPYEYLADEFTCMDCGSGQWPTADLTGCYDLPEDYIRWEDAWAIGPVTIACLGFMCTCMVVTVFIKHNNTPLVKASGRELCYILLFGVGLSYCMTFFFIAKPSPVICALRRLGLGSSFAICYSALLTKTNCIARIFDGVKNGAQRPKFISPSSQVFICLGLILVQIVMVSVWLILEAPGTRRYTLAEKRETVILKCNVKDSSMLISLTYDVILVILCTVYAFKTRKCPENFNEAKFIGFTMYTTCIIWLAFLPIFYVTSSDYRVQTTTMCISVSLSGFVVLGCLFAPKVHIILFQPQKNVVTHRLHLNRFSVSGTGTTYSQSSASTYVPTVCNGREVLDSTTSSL
Chain of Metabotropic glutamate receptor 1 (Q13255 whole entry): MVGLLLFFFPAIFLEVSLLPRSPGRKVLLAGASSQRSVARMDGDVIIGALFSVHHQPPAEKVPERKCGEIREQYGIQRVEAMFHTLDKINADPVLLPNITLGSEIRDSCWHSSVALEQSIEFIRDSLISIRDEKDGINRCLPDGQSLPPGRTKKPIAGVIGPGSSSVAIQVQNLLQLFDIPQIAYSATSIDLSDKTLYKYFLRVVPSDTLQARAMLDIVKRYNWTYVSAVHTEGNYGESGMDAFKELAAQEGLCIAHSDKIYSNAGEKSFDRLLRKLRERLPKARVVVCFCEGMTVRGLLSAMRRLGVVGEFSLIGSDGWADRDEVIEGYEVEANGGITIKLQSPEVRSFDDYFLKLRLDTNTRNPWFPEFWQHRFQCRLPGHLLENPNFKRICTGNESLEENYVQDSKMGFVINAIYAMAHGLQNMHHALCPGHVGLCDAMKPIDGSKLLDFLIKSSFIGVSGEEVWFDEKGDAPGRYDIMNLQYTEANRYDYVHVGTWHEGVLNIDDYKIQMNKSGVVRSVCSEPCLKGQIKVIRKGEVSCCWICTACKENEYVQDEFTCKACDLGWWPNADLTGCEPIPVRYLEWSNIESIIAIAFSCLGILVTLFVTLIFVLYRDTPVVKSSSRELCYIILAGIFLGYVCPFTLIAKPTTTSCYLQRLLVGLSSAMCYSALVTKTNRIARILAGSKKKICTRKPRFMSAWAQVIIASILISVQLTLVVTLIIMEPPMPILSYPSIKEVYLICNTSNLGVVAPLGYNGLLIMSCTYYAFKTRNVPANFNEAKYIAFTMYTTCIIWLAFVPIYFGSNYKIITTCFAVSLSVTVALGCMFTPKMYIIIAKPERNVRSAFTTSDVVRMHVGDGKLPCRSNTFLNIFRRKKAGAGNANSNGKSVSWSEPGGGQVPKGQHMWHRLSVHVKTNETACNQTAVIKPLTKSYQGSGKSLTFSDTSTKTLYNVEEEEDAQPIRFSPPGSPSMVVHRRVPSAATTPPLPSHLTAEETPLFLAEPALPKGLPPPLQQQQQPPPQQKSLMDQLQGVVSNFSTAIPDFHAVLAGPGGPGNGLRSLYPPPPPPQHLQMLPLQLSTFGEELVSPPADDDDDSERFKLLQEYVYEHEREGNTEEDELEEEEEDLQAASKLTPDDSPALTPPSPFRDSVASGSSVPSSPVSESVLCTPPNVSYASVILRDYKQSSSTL

Take `N[C@@]1(C(=O)O)CC[C@H](C(=O)O)C1` [1S, 3R-ACPD]: the pKi in assay [1] is less than 5.00; in assay [2], < 5.00 and 5.27. Consider `N[C@@H](Cn1oc(=O)[nH]c1=O)C(=O)O` [2-amino-3-(3,5-dioxo[1,2,4]oxadiazolidin-2-yl)propionic acid], for which the pKi in assay [1] is 6.38. Consider `N[C@H](C(=O)O)[C@H]1C[C@H]1C(=O)O` [L-CCG-IV], for which the pKi in assay [3] was 5.46; in assay [1], less than 5.00.
